This passage reports IC50 results from ChEMBL document CHEMBL1122716, “cis-1,3,4,6,7,11b-Hexahydro-2-methyl-7-phenyl-2H-pyrazino[2,1-a] isoquinoline: a new atypical antidepressant” (J Med Chem, 1984).

This assay in a line: Binding affinity towards histamine receptor by inhibiting specific binding of [3H]-mepyramine (3 nM) in vitro to membranes of rat brain without cerebellum. Format: cell membranes.

The structures appear in SMILES notation.

In turn, `CN(C)CC1NCC(c2ccccc2)c2ccccc21` (centres undefined) displayed an IC50 of 2000 nM.

Molecule `CN1CCN2CC(c3ccc([N+](=O)[O-])cc3)c3ccc([N+](=O)[O-])cc3C2C1` (cis isomer) showed an IC50 of over 10000 nM.

`CN1CCN2CC(c3ccc([N+](=O)[O-])cc3)c3ccccc3C2C1` (cis isomer) showed an IC50 of 520 nM.

Turning to `CCCCCCN1CCN2CC(c3ccccc3)c3ccccc3C2C1` (centres undefined), the IC50 is over 10000 nM.

`CN1CCN2CC(c3ccccc3)c3ccccc3C2C1` (stereo in doubt; 7a): the IC50 was found to be 60 nM.

The molecule `CCCCN1CCN2CC(c3ccccc3)c3ccccc3C2C1` (cis isomer) yielded an IC50 of over 10000 nM.

`CN1CCN2CC(c3ccc(Cl)cc3)c3ccccc3C2C1` (centres undefined) displayed an IC50 of 380 nM.

The molecule `CNCC1NCC(c2ccccc2)c2ccccc21` (stereo in doubt; 4a) showed an IC50 of 3500 nM.

Consider `CCCN1CCN2CC(c3ccccc3)c3ccccc3C2C1` (cis isomer), for which the IC50 is over 10000 nM.

In the case of `CN1CCN2CC(c3ccccc3)c3ccccc3C2C1` (trans isomer), the IC50 is over 10000 nM.

With `COc1ccc(C2CN3CCN(C)CC3c3ccccc32)cc1` (centres undefined), the IC50 turned out to be 680 nM.

`CN(C)CCCN1c2ccccc2CCc2ccccc21` [IMIPRAMINE] had an IC50 of 30 nM.

Molecule `CN1CCN2c3ccccc3Cc3ccccc3C2C1` (centres undefined) [MIANSERIN] had an IC50 of 14 nM.

The molecule `CCN1CCN2CC(c3ccccc3)c3ccccc3C2C1` (centres undefined) showed an IC50 of 280 nM.

Regarding `CN1CCN2CC(c3ccc(O)cc3)c3ccccc3C2C1` (centres undefined), the IC50 amounted to 190 nM.

In turn, `c1ccc(C2CN3CCNCC3c3ccccc32)cc1` (centres undefined) showed an IC50 of over 10000 nM.

For the molecule `CN1CCN2CC(c3ccc(N)cc3)c3ccccc3C2C1` (cis isomer), the IC50 was found to be 860 nM.

Regarding `CCNCC1NCC(c2ccccc2)c2ccccc21` (cis isomer), the IC50 is 5000 nM. Compared with the last molecule, the IC50 is about 5.8-fold higher.

`CN(C)CC1c2ccccc2C(c2ccccc2)CN1C` (cis isomer) yielded an IC50 of over 10000 nM.

`CNCC1NCC(c2ccccc2)c2ccccc21` (stereo in doubt; 5): the IC50 was determined as 170 nM.

In the case of `c1ccc(CN2CCN3CC(c4ccccc4)c4ccccc4C3C2)cc1` (centres undefined), the IC50 is over 10000 nM.

Molecule `CN1CCN2CC(c3ccccc3)c3ccccc3C2C1` (stereo in doubt; 10) gave an IC50 of 2800 nM.

Turning to `c1ccc(CCN2CCN3CC(c4ccccc4)c4ccccc4C3C2)cc1` (centres undefined), the IC50 is over 10000 nM.

The molecule `CN1CCN2CC(c3ccccc3)c3ccccc3C2C1` (single isomer, unassigned; (-)) registered an IC50 of 40 nM. That is a double-digit nanomolar value.
